Usually IC50 stands for the concentration needed to halve the response being measured.

This assay has as its target T1, Gag-Pol polyprotein [1148-1435] (Human immunodeficiency virus 1, UniProt P04585).
T1 construct: 1148-1435
Put plainly: HIV-1 Integrase Assay. Here is the method: HIV-1 integrase inhibitory activity of compounds were determined using strand transferase inhibitory assay.
For the compound `C=c1[nH]n(C(=O)c2ccc(Cl)cc2)c(=O)c1=Cc1ccc(O)cc1`, the midpoint of inhibition, the IC50, lay at 293 µM.
For `O=C1c2ccccc2C(C2CCCCC2)C(=O)N1O` (centres undefined) [4-cyclohexyl-2-hydroxy-4H-isoquinoline-1,3-dione (Compound 3)] the value was 1.35 µM.
Then `O=C(NNC(=O)c1cccc(O)c1O)c1ccccc1O` [2,3-dihydroxy-N'-(2-hydroxybenzoyl)benzohydrazide (Compound 17)], with 0.5 µM.
In the case of `O=C1C(=O)c2ccccc2C(=O)C1=Cc1c(O)c(O)c2ccccc2c1O` [2-hydroxy-3-[(3-hydroxy-1,4-dioxonaphthalen-2-yl)methyl]naphthalene-1,4-dione (Compound 10)], it took 20 µM to reach half-maximal inhibition (IC50).
Regarding `Cn1c(=O)c(C(=O)O)c(O)c2cc(-c3ccc(F)cc3)ccc21` [6-(4-fluorophenyl)-4-hydroxy-1-methyl-2-oxoquinoline-3-carboxylic acid (Compound 6)], the IC50 was determined as 23 µM.
`COC(=O)c1ccc(CC(=O)c2cc(C=O)c(O)cc2C)c(C)c1O` [methyl 4-[2-(5-formyl-4-hydroxy-2-methylphenyl)-2-oxoethyl]-2-hydroxy-3-methylbenzoate (Compound 5)]: the half-maximal inhibitory concentration (IC50) is 123 µM. This IC50 is about 5.3-fold higher than that of the compound before.
Turning to `Oc1ccccc1CNNCC(O)COc1ccccc1` (centres undefined) [2-{[2-(2-hydroxy-3-phenoxypropyl)hydrazin-1-yl]methyl}phenol (Compound 15)], the IC50 is 200 µM.
For the compound `O=C1/C(=C\c2cccc(O)c2)C=NN1C(=O)c1ccccc1O` [(4Z)-2-(2-hydroxybenzoyl)-4-[(3-hydroxyphenyl)methylidene]pyrazol-3-one (Compound 11)], the midpoint of inhibition, the IC50, lay at 7.4 µM.
Then `O=c1oc2ccccc2c(O)c1C1c2ccccc2Oc2c1c(=O)oc1ccccc21` (centres undefined), with 122 µM.
As to `O=C(O)C(=O)CC(=O)c1cn(Cc2ccc(F)cc2)c2ccc(F)cc2c1=O` [(2Z)-4-{6-fluoro-1-[(4-fluorophenyl)methyl]-4-oxoquinolin-3-yl}-2-hydroxy-4-oxobut-2-enoic acid (Compound 9)], the IC50 worked out at 2.3 µM.
Then `COc1cc2c(cc1OC)C(=O)N1CSCC1C(=O)S2` (centres undefined) [12,13-dimethoxy-5,9-dithia-3-azatricyclo[8.4.0.0 ,⁷]tetradeca-1(14),10,12-triene-2,8-dione (Compound 8)], with 331 µM; and `O=C(NO)c1ccc2c(c1)CCN2Cc1ccc(F)cc1F` [1-[(2,4-difluorophenyl)methyl]-N-hydroxy-2,3-dihydroindole-5-carboxamide (Compound 1)], with 84 µM.
The compound `O=C(Nc1ncnc2c1ncn2Cc1ccc(F)cc1)c1ccc2cccnc2c1O` [N-{9-[(4-fluorophenyl)methyl]purin-6-yl}-8-hydroxyquinoline-7-carboxamide (Compound 20)] registered an IC50 of 11.2 µM. Against the preceding compound, the IC50 is about 7.5-fold lower.
For `O=C(O)C(=O)CC(=O)c1c[nH]c2ccc(Cl)cc12` the value was 0.52 µM; for `COC(=O)c1ccc2cc(CCc3ccc(O)c(O)c3)oc2c1` [methyl 2-[2-(3,4-dihydroxyphenyl)ethyl]-1-benzofuran-6-carboxylate (Compound 18)], 43.8 µM; for `O=C(O)C(=O)CC(=O)c1cc(OCc2ccccc2)cc(OCc2ccccc2)c1`, 0.059 µM.
Then `O=C(NCc1ccc(Cl)c(Cl)c1)c1nc(-c2cccs2)nc(O)c1O` [N-[(3,4-dichlorophenyl)methyl]-5,6-dihydroxy-2-(thiophen-2-yl)pyrimidine-4-carboxamide (Compound 14)], with 0.01 µM.
Then `O=C(NCc1cc2ccccc2s1)c1nc(-c2cccs2)nc(O)c1O` [N-(1-benzothiophen-2-ylmethyl)-5,6-dihydroxy-2-(thiophen-2-yl)pyrimidine-4-carboxamide (Compound 12)], with 0.01 µM.
Compound `O=C(NNCc1ccccc1O)c1ccccc1O` [2-hydroxy-N'-[(2-hydroxyphenyl)methyl]benzohydrazide (Compound 4)] returned an IC50 of 0.7 µM.

The record behind these values is BindingDB's records for doi:10.1111/cbdd.12207 (Nirma University, 2014).
